Experimental findings from article PMC6365201 (Organic & biomolecular chemistry, 2019) are described below.

This test concerns the target FrbG (Streptomyces rubellomurinus, UniProt Q0ZQ42, H221A). Kind of test: NADPH oxidation at […] nm. The format is biochemical. The note with it: 500 μM substrate; 200 μM NADPH; 5 μM enzyme; 50 mM HEPES.

Sequence of FrbG (Q0ZQ42 whole entry H221A): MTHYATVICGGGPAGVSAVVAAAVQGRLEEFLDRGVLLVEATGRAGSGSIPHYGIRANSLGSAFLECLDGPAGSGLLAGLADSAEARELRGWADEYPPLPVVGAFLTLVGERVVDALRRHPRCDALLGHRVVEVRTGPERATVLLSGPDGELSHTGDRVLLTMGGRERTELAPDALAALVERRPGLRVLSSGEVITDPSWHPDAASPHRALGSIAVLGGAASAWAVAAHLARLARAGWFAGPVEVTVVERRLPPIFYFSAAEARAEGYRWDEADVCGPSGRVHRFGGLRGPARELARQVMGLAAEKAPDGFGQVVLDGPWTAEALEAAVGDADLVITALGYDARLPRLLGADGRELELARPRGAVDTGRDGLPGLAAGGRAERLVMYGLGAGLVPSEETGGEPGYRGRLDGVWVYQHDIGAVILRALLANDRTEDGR

In the case of `NCCCP(=O)(O)OP(=O)(O)OC[C@H]1O[C@@H](n2ccc(N)nc2=O)[C@H](O)[C@@H]1O` [compound 4, CMP-5’-3APn], the “NADPH oxidation at 340 nm” value is “FrbG-H221A had significantly higher rates for both NADPH oxidation and substrate hydroxylation”.
